Laboratory results: patent publication US8383139B2 (Bayer CropScience AG, priority 2008, dated 2013)

Assay: log P by HPLC on reversed-phase columns (C 18), EEC Directive 79/831 Annex V.A8
Assay type: physicochemical
Conditions: [a] HPLC, acid region pH 2.3, 0.1% aqueous phosphoric acid and acetonitrile
For `CCN(C)C=Nc1cc(C)c(Oc2nc(Cc3cccc(F)c3)ns2)cc1C` [Example 78], the log p was 1.87^[a].
For `Cc1cc(Oc2nc(Cc3ccc(C(F)(F)F)cc3)ns2)c(C)cc1N=CN1CCCCC1` [Example 79], the log p was 2.66^[a].
For `CCN(C)C=Nc1cc(C)c(Oc2nc(Cc3ccc(Oc4ccccc4)cc3)ns2)cc1C` [Example 80], the log p was 2.72^[a].
In the case of `Cc1cc(Oc2nc(Cc3cccc(F)c3)ns2)c(C)cc1N=CN1CCCCC1` [Example 81], the log p is reported as 2.25^[a].
In the case of `Cc1cc(Oc2nc(Cc3ccc(C#N)cc3)ns2)c(C)cc1N=CN1CCCCC1` [Example 82], the log p is reported as 2.06^[a].
In the case of `Cc1ccc(Br)cc1Cc1nsc(Oc2cc(C)c(N=CN3CCCCC3)cc2C)n1` [Example 83], the log p is reported as 2.79^[a].
For `Cc1cc(Oc2nc(Cc3cc(F)ccc3F)ns2)c(C)cc1N=CN1CCCCC1` [Example 84], the log p was 2.4^[a].
In the case of `Cc1cc(Oc2nc(Cc3ccc(Oc4ccccc4)cc3)ns2)c(C)cc1N=CN1CCCCC1` [Example 85], the log p is reported as 2.85^[a].
In the case of `Cc1cc(Oc2nc(Cc3c(Cl)cccc3Cl)ns2)c(C)cc1N=CN1CCCCC1` [Example 86], the log p is reported as 2.6^[a].
In the case of `COc1cccc(Cc2nsc(Oc3cc(C)c(N=CN4CCCCC4)cc3C)n2)c1` [Example 87], the log p is reported as 2.17^[a].
In the case of `Cc1cc(Oc2nc(Cc3ccc(SC(F)(F)F)cc3)ns2)c(C)cc1N=CN1CCCCC1` [Example 88], the log p is reported as 2.67^[a].
For `CCOc1ccc(Cc2nsc(Oc3cc(C)c(N=CN(C)CC)cc3C)n2)cc1` [Example 89], the log p was 2.06^[a].
For `CCOc1ccc(Cc2nsc(Oc3cc(C)c(N=CN4CCCCC4)cc3C)n2)cc1` [Example 90], the log p was 2.23^[a].
With `Cc1cc(Oc2nc(Cc3ccc(F)c(C(F)(F)F)c3)ns2)c(C)cc1N=CN1CCCCC1` [Example 91] the log p was 2.44^[a].
In the case of `Cc1cc(Oc2nc(Cc3ccc4ccccc4c3)ns2)c(C)cc1N=CN1CCCCC1` [Example 92], the log p is reported as 2.43^[a].
With `Cc1cc(Oc2nc(Cc3cccc(Cl)c3Cl)ns2)c(C)cc1N=CN1CCCCC1` [Example 93] the log p was 2.38^[a].
For `CCN(C)C=Nc1cc(C)c(Oc2nc(Cc3ccc(F)c(C(F)(F)F)c3)ns2)cc1C` [Example 94], the log p was 2.24^[a].
With `CCN(C)C=Nc1cc(Cl)c(Oc2nc(Cc3ccc(SC(F)(F)F)cc3)ns2)cc1C` [Example 95] the log p was 2.51^[a].
With `CCN(C)C=Nc1cc(C)c(Oc2nc(Cc3cccc(Cl)c3Cl)ns2)cc1C` [Example 96] the log p was 2.21^[a].
For `CCN(C)C=Nc1cc(C)c(Oc2nc(Cc3ccc4ccccc4c3)ns2)cc1C` [Example 97], the log p was 2.22^[a].
In the case of `Cc1cc(Oc2nc(Cc3ccccc3Br)ns2)c(C)cc1N=CN1CCCCC1` [Example 98], the log p is reported as 2.36^[a].
In the case of `CCN(C)C=Nc1cc(C)c(Oc2nc(Cc3ccccc3F)ns2)cc1C` [Example 99], the log p is reported as 2.12^[a].
With `CCN(C)C=Nc1cc(C)c(Oc2nc(Cc3ccccc3Br)ns2)cc1C` [Example 100] the log p was 2.32^[a].
With `CCOCC(NC=Nc1cc(C)c(Oc2nc(Cc3ccc(OC(F)(F)F)cc3)ns2)cc1C)C1CC1` (stereo not drawn) [Example 101] the log p was 2.85^[a].
For `CCN(C)C=Nc1cc(C)c(Oc2nc(Cc3ccc(SC(F)(F)F)cc3)ns2)cc1C` [Example 102], the log p was 2.78^[a].
For `Cc1ccc(Cc2nsc(Oc3cc(C)c(N=CN4CCCCC4)cc3C)n2)c([N+](=O)[O-])c1` [Example 103], the log p was 2.44^[a].
For `Cc1cc(Oc2nc(Cc3ccccc3F)ns2)c(C)cc1N=CN1CCCCC1` [Example 104], the log p was 2.27^[a].
With `CCN(C)C=Nc1cc(C)c(Oc2nc(Cc3c(F)cc(F)cc3F)ns2)cc1C` [Example 105] the log p was 2.1^[a].
In the case of `CCN(C)C=Nc1cc(C)c(Oc2nc(Cc3ccccc3[N+](=O)[O-])ns2)cc1C` [Example 106], the log p is reported as 2.07^[a].
For `Cc1cc(Oc2nc(Cc3ccc4ccccc4c3)ns2)c(C)cc1N=CN1CCCCC1` [Example 107], the log p was 2.37^[a].
With `CCN(C)C=Nc1cc(C(C)C)c(Oc2nc(Cc3ccc(Cl)cc3Cl)ns2)cc1C` [Example 108] the log p was 2.93^[a].
In the case of `CCN(C)C=Nc1cc(C(C)C)c(Oc2nc(Cc3ccc(Cl)cc3)ns2)cc1C` [Example 109], the log p is reported as 2.71^[a].
For `CCN(C)C=Nc1cc(C(C)C)c(Oc2nc(Cc3ccc(F)cc3)ns2)cc1C` [Example 110], the log p was 2.41^[a].
In the case of `CCN(C)C=Nc1cc(C(C)C)c(Oc2nc(Cc3ccc(Br)cc3)ns2)cc1C` [Example 111], the log p is reported as 2.75^[a].
With `CCN(C)C=Nc1cc(C)c(Oc2nc(Cc3ccc4ccccc4c3)ns2)cc1C` [Example 112] the log p was 2.24^[a].
With `CCN(C)C=Nc1cc(C)c(Oc2nc(Cc3cccc(C)c3)ns2)cc1C` [Example 113] the log p was 2.28^[a].
For `Cc1cccc(Cc2nsc(Oc3cc(C)c(N=CN4CCCCC4)cc3C)n2)c1` [Example 114], the log p was 2.44^[a].
With `Cc1cc(F)c(Br)cc1Cc1nsc(Oc2cc(C)c(N=CN3CCCCC3)cc2C)n1` [Example 115] the log p was 2.76^[a].
For `CCN(C)C=Nc1cc(C)c(Oc2nc(Cc3cc(Br)c(F)cc3C)ns2)cc1C` [Example 116], the log p was 2.57^[a].
With `Cc1cc(Oc2nc(Cc3c(F)cc(F)cc3F)ns2)c(C)cc1N=CN1CCCCC1` [Example 117] the log p was 2.33^[a].
For `Cc1cc(Oc2nc(Cc3ccccc3[N+](=O)[O-])ns2)c(C)cc1N=CN1CCCCC1` [Example 121], the log p was 2.16^[a].
For `Cc1ccc(Cc2nsc(Oc3cc(C)c(N=CN4CCCCC4)cc3C)n2)cc1` [Example 122], the log p was 2.49^[a].

Same assay, conditions: [b] LC-MS, acid region pH 2.7, 0.1% aqueous formic acid and acetonitrile
For `CCN(C)C=Nc1cc(Cl)c(Oc2nc(Cc3ccc(Cl)cc3Cl)ns2)cc1C` [Example 118], the log p was 2.42^[b].
For `CCN(C)C=Nc1cc(Cl)c(Oc2nc(Cc3ccc(Br)cc3)ns2)cc1C` [Example 119], the log p was 2.26^[b].
In the case of `CCN(C)C=Nc1cc(C)c(Oc2nc(Cc3ccc(C)cc3)ns2)cc1C` [Example 120], the log p is reported as 2.12^[b].
In the case of `Cc1cc(Oc2nc(Cc3ccc(Cl)cc3)ns2)c(C)cc1N=CN(C)C1CC1` [Example 123], the log p is reported as 2.06^[b].
In the case of `CCOCC(C1CC1)N(C)C=Nc1cc(C)c(Oc2nc(Cc3ccc(Cl)cc3)ns2)cc1C` (stereo not drawn) [Example 124], the log p is reported as 2.56^[b].
With `Cc1cc(Oc2nc(Cc3ccc(SC(F)(F)F)cc3)ns2)c(C)cc1N=CN(C)CC(F)F` [Example 125] the log p was 2.68^[b].
With `Cc1cc(Oc2nc(Cc3ccc(SC(F)(F)F)cc3)ns2)c(C)cc1N=CN(C)C1CC1` [Example 126] the log p was 1.83^[b].
With `Cc1cc(Oc2nc(Cc3ccc(F)cc3)ns2)c(C)cc1N=CN(C)C1CC1` [Example 127] the log p was 1.83^[b].
In the case of `CCOCC(C1CC1)N(C)C=Nc1cc(C)c(Oc2nc(Cc3ccc(SC(F)(F)F)cc3)ns2)cc1C` (stereo not drawn) [Example 128], the log p is reported as 2.92^[b].
In the case of `Cc1cc(Oc2nc(Cc3ccc(C(F)(F)F)cc3)ns2)c(C)cc1N=CN(C)CC(F)F` [Example 129], the log p is reported as 2.38^[b].
For `Cc1cc(Oc2nc(Cc3ccc(C(F)(F)F)cc3)ns2)c(C)cc1N=CN(C)C1CC1` [Example 130], the log p was 2.28^[b].
In the case of `Cc1cc(Oc2nc(Cc3ccc(F)cc3)ns2)c(C)cc1N=CN(C)CC(F)F` [Example 131], the log p is reported as 1.99^[b].
With `CCOCC(C1CC1)N(C)C=Nc1cc(C)c(Oc2nc(Cc3ccc(F)cc3)ns2)cc1C` (stereo not drawn) [Example 132] the log p was 2.26^[b].
In the case of `CCOCC(C1CC1)N(C)C=Nc1cc(C)c(Oc2nc(Cc3ccc(C(F)(F)F)cc3)ns2)cc1C` (stereo not drawn) [Example 133], the log p is reported as 2.43^[b].
For `CCOCC(C1CC1)N(C)C=Nc1cc(C)c(Oc2nc(Cc3ccc(OC)cc3)ns2)cc1C` (stereo not drawn) [Example 134], the log p was 2.36^[b].
